The values below come from ChEMBL document CHEMBL1141417, “2,6,8-trisubstituted 1-deazapurines as adenosine receptor antagonists” (J Med Chem, 2007).

pKi: −log10 of the molar value. Where only a bound is given, the exact number is not on record here.

In assay [1] the target is T1, Adenosine receptor A1 (Homo sapiens) (UniProt P30542).
T1 sequence (whole entry): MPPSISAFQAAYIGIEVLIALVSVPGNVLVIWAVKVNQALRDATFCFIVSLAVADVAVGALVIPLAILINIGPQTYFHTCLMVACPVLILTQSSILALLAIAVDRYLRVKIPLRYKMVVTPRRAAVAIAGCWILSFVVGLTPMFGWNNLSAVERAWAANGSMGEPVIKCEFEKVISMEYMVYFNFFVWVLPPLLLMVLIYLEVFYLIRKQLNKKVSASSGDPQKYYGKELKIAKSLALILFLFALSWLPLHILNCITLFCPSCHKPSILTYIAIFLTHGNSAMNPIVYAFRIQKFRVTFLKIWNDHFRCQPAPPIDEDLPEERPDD
As to the kind of experiment: Displacement of [3H]DPCPX from human adenosine A1 receptor expressed in CHO cells at 1 uM. It is filed as cell-based. (Displacement assays read how much labelled ligand stays bound in the presence of the test substance.)

In assay [2] the target is T2, Adenosine receptor A2a (Homo sapiens, UniProt P29274). The assay is described as follows: Displacement of [3H]ZM241385 from human adenosine A2A receptor expressed in CHO cells at 1 uM. It counts as cell-based.
Assay [3] addresses T3, Adenosine receptor A3 (Homo sapiens) (UniProt P0DMS8).
T3 sequence (whole entry): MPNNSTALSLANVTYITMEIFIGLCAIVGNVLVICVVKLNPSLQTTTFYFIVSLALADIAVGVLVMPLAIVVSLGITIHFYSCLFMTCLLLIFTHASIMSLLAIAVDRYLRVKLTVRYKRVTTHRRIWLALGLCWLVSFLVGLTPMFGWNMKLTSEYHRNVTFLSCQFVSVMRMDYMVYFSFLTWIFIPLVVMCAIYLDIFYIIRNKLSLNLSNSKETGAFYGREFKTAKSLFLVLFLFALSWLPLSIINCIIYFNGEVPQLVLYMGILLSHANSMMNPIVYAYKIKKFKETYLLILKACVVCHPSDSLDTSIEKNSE
As to the kind of experiment: Displacement of [125I]AB-MECA from human adenosine A3 receptor expressed in CHO cells at 1 uM. It counts as cell-based.

In assay [4] the target is T1, Adenosine receptor A1 (Homo sapiens). The assay is described as follows: Activity at human adenosine A1 receptor in CHO cells assessed as effect on CPA induced inhibition of forskolin-stimulated cAMP production at 1 uM. It counts as functional, cell-based. The following applies: filed as antagonist.
Assay [5] concerns the target Adenosine receptors; A1 & A2a (Homo sapiens) (UniProt P30542+P29274). As to the kind of experiment: Selectivity for human adenosine A1 receptor over human adenosine A2A receptor. It counts as protein assay.
Another assay deals with T4, Adenosine receptor A3 (Homo sapiens, UniProt P0DMS8).
T4 sequence (P0DMS8 whole entry): T3 sequence (whole entry)
As to the kind of experiment: Displacement of [125I]AB-MECA from human adenosine A3 receptor expressed in CHO cells. It is filed as cell-based.

The target in assay [6] is T1, Adenosine receptor A1 (Homo sapiens). The assay is described as follows: Activity at human adenosine A1 receptor expressed in CHO cells assessed as effect on forskolin-stimulated cAMP production at 100 nM. It counts as functional, cell-based. (Cyclic AMP is a second messenger, typically raised through Gs and lowered through Gi signalling.)
Assay [7] deals with Adenosine receptors; A1 & A3 (Homo sapiens) (UniProt P30542+P0DMS8). The assay is described as follows: Selectivity for human adenosine A1 receptor over human adenosine A3 receptor. It counts as protein assay.
The target in assay [8] is T2, Adenosine receptor A2a. As to the kind of experiment: Displacement of [3H]ZM-241385 from human adenosine A2A receptor expressed in CHO cells. It is filed as cell-based.
Assay [9] addresses T5, Adenosine receptor A1 (Homo sapiens, UniProt P30542).
T5 sequence (P30542 whole entry): T1 sequence (whole entry)
As to the kind of experiment: Displacement of [3H]DPCPX from human adenosine A1 receptor expressed in CHO cells. It is filed as cell-based.

In assay [10] the target is T5, Adenosine receptor A1. The assay is described as follows: Activity at human adenosine A1 receptor in CHO cells assessed as effect on CPA induced inhibition of forskolin-stimulated cAMP production. It counts as functional, cell-based.
The target in assay [11] is T1, Adenosine receptor A1 (Homo sapiens). The assay is described as follows: Activity at human adenosine A1 receptor expressed in CHO cells assessed as effect on forskolin-stimulated cAMP production at 100 uM. It counts as functional, cell-based. The following applies: filed as inverse agonist.

T2 sequence (P29274 whole entry): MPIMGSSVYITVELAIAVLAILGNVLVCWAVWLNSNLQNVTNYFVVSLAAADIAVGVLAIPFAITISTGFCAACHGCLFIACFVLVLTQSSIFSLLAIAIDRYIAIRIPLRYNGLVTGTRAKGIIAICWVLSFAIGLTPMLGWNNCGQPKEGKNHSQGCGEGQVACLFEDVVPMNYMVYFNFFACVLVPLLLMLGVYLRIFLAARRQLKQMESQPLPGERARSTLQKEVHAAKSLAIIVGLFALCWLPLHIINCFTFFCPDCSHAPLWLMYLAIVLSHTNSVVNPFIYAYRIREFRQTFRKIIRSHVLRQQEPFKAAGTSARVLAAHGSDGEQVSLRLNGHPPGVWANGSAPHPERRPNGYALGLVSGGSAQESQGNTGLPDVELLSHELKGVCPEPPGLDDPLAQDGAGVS
Adenosine receptors; A1 & A2a (Homo sapiens), sequence (P29274 whole entry, looked up, one chain of several): as the sequence (P29274 whole entry) above

In general, inhibition refers to how much of the control response was suppressed. As for `c1ccc(Cn2cnc3c(-c4ccccc4)cc(-c4ccccc4)nc32)cc1`, the inhibition was 38% in assay [1], 2% on Adenosine receptor A2a [2] and 15% in [3].

What is called Ki is a measure of affinity in units of concentration, obtained from inhibition or displacement. A high value points to a looser hold on the target. As for `c1ccc(-c2cc(-c3ccccc3)c3nc(C4CCCC4)[nH]c3n2)cc1`, the Activity entry in assay [4] was “Antagonist”; in assay [6] (filed as inverse agonist), “Inverse agonist”. For the same molecule, the Ratio Ki in assay [5] is greater than 1600. The Ki on Adenosine receptor A3 was 6.9 nM (antagonist). Also, at Adenosine receptor A2a [2], the inhibition came out at 49%.

`CCC(CC)c1nc2c(-c3ccccc3)cc(-c3ccccc3)nc2[nH]1`: the Activity entry in [4] is “Antagonist”; in assay [6] (filed as inverse agonist) it was “Inverse agonist”. Besides, in [7], the Ratio Ki is 199. The Ki on Adenosine receptor A2a [8] is recorded as 247 nM (antagonist); on Adenosine receptor A1 [9], 0.87 nM (antagonist); on Adenosine receptor A3, 171 nM (antagonist).

The IC50 is the point on the concentration scale where inhibition reaches its midpoint. In the case of `c1ccc(-c2cc(-c3ccccc3)c3nc(C4CCCCC4)[nH]c3n2)cc1`, the Activity result is “Antagonist” in [4] and “Inverse agonist” in [6] (filed as inverse agonist). For the same molecule, the Ratio Ki in assay [5] stood at 215; in [7], 718. Also, the Ki on Adenosine receptor A2a [8] is recorded as 194 nM (antagonist); on Adenosine receptor A3, 637 nM (antagonist). The IC50 on Adenosine receptor A1 [10] is 1700 nM (antagonist).

The pKi is −log10 of the Ki, conventionally taken in molar units. Read a low pKi as a large Ki. For the molecule `CC(C)(C)c1nc2c(-c3ccccc3)cc(-c3ccccc3)nc2[nH]1`, on Adenosine receptor A2a [8], the pKi is 5.98. Further, the Ki is 5.5 nM (antagonist) on Adenosine receptor A1 [9] and 115 nM (antagonist) on Adenosine receptor A3.

Regarding `O=c1[nH]c2nc(-c3ccccc3)cc(-c3ccccc3)c2[nH]1`, the figures for the Ki at Adenosine receptor A2a [8], on Adenosine receptor A1 [9] and on Adenosine receptor A3 were 192 nM (antagonist), 8.6 nM (antagonist) and 262 nM (antagonist), respectively.

For `Cc1nc2c(-c3ccccc3)cc(-c3ccccc3)nc2[nH]1`, the results for the Ki at Adenosine receptor A2a [8] and on Adenosine receptor A3 were 375 nM (antagonist) and 61 nM (antagonist), respectively.

On to `CCc1nc2c(C)cc(C)nc2[nH]1`, for which the Ki on Adenosine receptor A1 [9] is reported as 101 nM (antagonist). In addition, the values for the inhibition (at Adenosine receptor A2a [2]; in assay [3]) were 8% and 49%, respectively.

As to `CC(C)c1nc2c(-c3ccccc3)cc(-c3ccccc3)nc2[nH]1`, the Activity entry in assay [4] is “Antagonist”; in assay [6] (filed as inverse agonist), “Inverse agonist”. The Ratio Ki in [5] was 377. The Ki was 230 nM (antagonist) on Adenosine receptor A2a [8] and 7.3 nM (antagonist) at Adenosine receptor A3.

Turning to `CC(C)Cc1nc2c(-c3ccccc3)cc(-c3ccccc3)nc2[nH]1`, the Activity entry in assay [4] was “Antagonist”; in assay [6] (filed as inverse agonist), “Inverse agonist”. For the same molecule, the Ratio Ki in assay [5] is greater than 300; in assay [7], 45. In addition, the Ki on Adenosine receptor A2a [8] is given as 189 nM (antagonist); at Adenosine receptor A1 [9], 0.55 nM (antagonist); at Adenosine receptor A3, 25 nM (antagonist).

Turning to `Cn1cnc2c(NC3CCCC3)ncnc21`, the Activity result in assay [11] was “Inverse agonist”.

With `OC[C@H]1O[C@@H](n2cnc3c(NC4CCCC4)ncnc32)[C@H](O)[C@@H]1O`, the Activity result in assay [6] (filed as agonist) is “Agonist”.

Turning to `c1ccc(-c2cc(-c3ccccc3)c3nc[nH]c3n2)cc1`, in [5], the Ratio Ki was 33. In addition, the Ki is listed as 39 nM (antagonist) at Adenosine receptor A2a [8], 1.2 nM (antagonist) on Adenosine receptor A1 [9] and 180 nM (antagonist) on Adenosine receptor A3.

As for `CCCc1nc2c(-c3ccccc3)cc(-c3ccccc3)nc2[nH]1`, the Ki on Adenosine receptor A2a [8] is 114 nM (antagonist); at Adenosine receptor A1 [9], 2.5 nM (antagonist); on Adenosine receptor A3 it was 69 nM (antagonist).

Regarding `c1cnc2[nH]c(C3CCCC3)nc2c1`, the inhibition in assay [1] was determined as 6%; on Adenosine receptor A2a [2], 3%; in assay [3], 0%.

Take `CCc1nc2c(-c3ccccc3)cc(-c3ccccc3)nc2[nH]1`: the Ki on Adenosine receptor A2a [8] is 177 nM (antagonist); at Adenosine receptor A1 [9] it was 2.4 nM (antagonist); on Adenosine receptor A3 it was 8.5 nM (antagonist).
